These results are taken from publication PMC12473689, “Drug Metabolism and Pharmacokinetics of Oxazolo[4,5-c]quinoline Analogs as Novel Interleukin-33 Inhibitors” (Pharmaceutics, 2025).

The structures appear in SMILES notation.

Holding throughout (format): in vitro ADME
The nature of series [1]: Binding in mouse liver S9 fraction by equilibrium dialysis (RED). Conditions: equilibrium dialysis 37 °C 4 h, mean ± SD (n = 3). The procedure:
(§1) The nonspecific binding of KB-1517 and KB-1518 in human and mouse plasma and liver S9 fractions was determined by equilibrium dialysis using a Rapid Equilibrium Device (RED) system (Thermo Fisher Scientific, Seoul, Republic of Korea).
(§2) Working solutions (200 μM for plasma, 60 μM for S9 fractions) were prepared in 40% aqueous acetonitrile. These were diluted 20-fold into either plasma or S9 incubation buffer (1 mg/mL protein, 200 mM Tris-HCl, 2 mM MgCl2, pH 7.4) to create the final dosing solutions.
(§3) For the dialysis, RED inserts (8 kDa MWCO) were used. Into each device, 200 μL of a dosing solution was added to the sample chamber, and 350 μL of PBS was added to the buffer chamber. The plate was sealed and incubated at 37 °C for 4 h on an orbital shaker (100 rpm) to allow the system to reach equilibrium.
(§4) Following incubation, 50 μL aliquots were taken from both chambers. To ensure analytical consistency, the samples were matrix-matched: the sample chamber aliquot was mixed with 50 μL of PBS, and the buffer chamber aliquot was mixed with 50 μL of the corresponding blank matrix (plasma or S9 incubation buffer). Proteins were then precipitated by adding 200 μL of ice-cold acetonitrile containing diclofenac (1 μg/mL) as IS. The samples were subsequently vortexed, sonicated for 5 min, and centrifuged at 4000× g for 20 min. Finally, a 100 μL aliquot of the resulting supernatant was diluted with 100 μL of HPLC-grade water in a 96-well plate for subsequent LC-MS/MS analysis.

Series [2] can be described thus: Binding in human liver S9 fraction by equilibrium dialysis (RED). The conditions noted are these: equilibrium dialysis 37 °C 4 h, mean ± SD (n = 3). As to the method: as §1, §2, §3, §4
(In general: Equilibrium dialysis compares concentrations on both sides of a semipermeable membrane.)

Series [3] can be described thus: Plasma protein binding by equilibrium dialysis (RED), mouse plasma. Conditions: male, ICR, equilibrium dialysis 37 °C 4 h, mean ± SD (n = 3), read-out: fu (%) plasma protein binding. The procedure: as §1, §2, §3, §4
Series [4] in a line: Plasma protein binding by equilibrium dialysis (RED), human plasma. Conditions: equilibrium dialysis 37 °C 4 h, mean ± SD (n = 3), read-out: fu (%) plasma protein binding. As to the method: as §1, §2, §3, §4
Series [5] in a line: In vitro metabolic stability in pooled human liver S9 fraction. Conditions: for remaining at 1 h, 3 µM / half-life at 3 µM: pH 7.4, HLS9 1 mg/mL, 3 µM compound; for remaining at 1 h, 3 µM: cofactors NADPH, UDPGA, PAPS, GSH, 37 °C, read-out: % remaining after 60 min; for half-life at 3 µM: with cofactors, one-phase decay fit, read-out: in vitro t½ (estimated); for microsomal CLint at 3 µM: pH 7.4, HLS9, CLint,u = k/(fu,S9 × [S9]), read-out: CLint,u (unbound intrinsic clearance). As to the method:
Metabolic stability was assessed using pooled HLS9 and MLS9 fractions. The S9 fractions (20 mg/mL) were diluted to 1 mg/mL with 0.1 M potassium phosphate buffer (pH 7.4). Stock solutions of KB-1517 and KB-1518 (10 mM in DMSO) were diluted in 50% aqueous acetonitrile to prepare working solutions (120 µM). A Tris mix buffer containing 1 M Tris-HCl (pH 7.4), 10 mM MgCl2, and 125 µg/mL alamethicin was prepared. A combined cofactor solution was prepared in 0.1 M potassium phosphate buffer (pH 7.4): 10 mM NADPH, 5 mM UDPGA, 1 mM PAPS, and 25 mM GSH.
The incubation mixture (final volume 200 µL) contained: 125 µL of deionized water, 40 µL of Tris mix buffer, 10 µL of 20 mg protein/mL S9 fraction (final concentration 1 mg protein/mL), and 5 µL of the test compound working solution (final concentration 3 µM). The final concentrations of DMSO and acetonitrile were 0.03% and 1%, respectively. The mixture was pre-incubated at 37 °C for 5 min in a shaking water bath. The reaction was initiated by adding 20 µL of the combined cofactor solution (final concentrations: 1 mM NADPH, 0.5 mM UDPGA, 0.1 mM PAPS, 2.5 mM GSH). Control incubations were performed without the cofactor mixture (replaced with buffer) and at 0 min (quenched immediately after adding cofactors). Incubations were carried out at 37 °C for 0, 15, 30, and 60 min (for stability) or 60 min (for metabolite ID). Reactions were terminated by adding 200 µL of ice-cold acetonitrile containing IS (diclofenac).
Terminated samples were sonicated (5 min), vortexed (1500 rpm, 5 min), and centrifuged (3000 rpm, 20 min, 4 °C). An aliquot (150 µL) of the supernatant was transferred to a 96-well plate for LC-MS/MS analysis as described in Section 2.6.2.
Noncompartmental analysis (NCA) was performed using PKSolver to determine pharmacokinetic parameters from the plasma concentration-time data. Parameters included: maximum plasma concentration (Cmax), time to reach Cmax (tmax), terminal elimination half-life (t1/2), area under the plasma concentration-time curve from time zero to the last measurable concentration (AUClast), area under the plasma concentration-time curve extrapolated to infinity (AUCinf), total body clearance (CL), and volume of distribution at steady state (Vss). Oral bioavailability (F) was calculated as: F(%) = (AUCinf,PO/AUCinf,IV)× (DoseIV/DosePO)×100. Due to the anomalous profile of KB-1517, AUClast was used for its F calculation, and some parameters (t½, CL, Vss for IV; AUCinf for PO) could not be reliably determined (ND). The metabolic rate constant (k) was determined by fitting the in vitro metabolic stability data to a one-phase decay equation via nonlinear regression using GraphPad Prism (Version 10, GraphPad Software, Boston, MA, USA). The in vitro t1/2 was calculated from the equation t1/2 = ln(2)/k. Subsequently, the unbound intrinsic clearance (CLint,u) was calculated as follows: CLint,u = k/(fu,S9 × [S9]), where fu,S9 is the fraction unbound in the S9 incubation and [S9] is the S9 protein concentration.
The metabolic stability of KB-1517 and KB-1518 was evaluated by incubating the compounds (3 µM) with HLS9 and MLS9 fractions (1 mg/mL) in the presence of a comprehensive set of phase I and phase II cofactors (NADPH, UDPGA, PAPS, and GSH) for up to 60 min.

The amount remaining is the share of the starting amount still present when the sample was taken. For `CN(C)CCn1c(=O)c2nc(-c3ccc(C(F)(F)F)cc3)oc2c2ccccc21` [KB-1517, 5-(2-(dimethylamino)ethyl)-2-(4-(trifluoromethyl)phenyl)oxazolo[4,5-c]quinolin-4(5H)-one], the fraction unbound at 4 h, 3 µM in series [1] (ICR, mouse, liver S9 fraction, pH 7.4, mouse liver S9, 1 mg/mL protein, read-out: fu (%) in liver S9 fractions) was less than 0.2; in series [2] (human, liver S9 fraction, pH 7.4, human liver S9, 1 mg/mL protein, read-out: fu (%) in liver S9 fractions), less than 0.2. Besides, the “fu (%) in liver S9 fractions” value in series [1] (mouse liver S9, 1 mg/mL protein) is on record as 15.1 ± 0.8%; in series [2] (human liver S9, 1 mg/mL protein), 19.1 ± 0.7%. Also, the fraction unbound at 4 h, 10 µM in series [3] and in series [4] was less than 0.02 each time. The share remaining at 1 h, 3 µM in series [5] turned out to be 81.9 ± 0.7%. Moreover, the half-life at 3 µM in series [5] was 3.09 h. Besides, in series [5], the microsomal CLint at 3 µM turned out to be 19.6 µL/min/mg.
As to `CN(C)CCOc1nc2ccccc2c2oc(-c3ccc(C(F)(F)F)cc3)nc12` [KB-1518, N,N-dimethyl-2-((2-(4-(trifluoromethyl)phenyl)oxazolo[4,5-c]quinolin-4-yl)oxy)ethan-1-amine], in series [5], the fraction remaining at 1 h, 3 µM was 74.2 ± 2.5%; the half-life at 3 µM is 1.88 h; the microsomal CLint at 3 µM amounted to 101 µL/min/mg.
